Source: PMC4999892 (Scientific Reports, 2016)
Bridges are numbered along the chain shown (N, C = ends). Where no end group is shown, it is not given here.

Legend:
B. megaterium cells = test: Membrane permeability assay with propidium iodide; type: cell-based, Bacillus megaterium
Aspergillus niger = test: Inhibition zone assay; type: cell-based; settings: N.A. = no inhibition zone at 0.8–1.0 nmol peptides each well
Experimental: (§1) Antimicrobial activity of peptides was assessed by the inhibition zone assay. Membrane permeability assay was performed according to the method previously reported. Sources of microbial strains used here are listed in Supplementary Table S2.

[1] = system: Aspergillus fumigatus CEA17; test: Inhibition zone assay; type: cell-based; settings: mutant (pyrG-), N.A. = no inhibition zone at 0.8–1.0 nmol peptides each well
Experimental: as §1

[2] = system: Neurospora crassa CGMCC 3.1605; test: Inhibition zone assay; type: cell-based; settings: N.A. = no inhibition zone at 0.8–1.0 nmol peptides each well
Experimental: as §1

[3] = system: Geotrichum candidum CCTCC AY 93038; test: Inhibition zone assay; type: cell-based; settings: N.A. = no inhibition zone at 0.8–1.0 nmol peptides each well
Experimental: as §1

[4] = system: Aspergillus nidulans RCho15; test: Inhibition zone assay; type: cell-based; settings: N.A. = no inhibition zone at 0.8–1.0 nmol peptides each well
Experimental: as §1

Aspergillus nidulans A28 = test: Inhibition zone assay; type: cell-based; settings: N.A. = no inhibition zone at 0.8–1.0 nmol peptides each well
Experimental: as §1

[5] = system: Aspergillus fumigatus CEA17, A. nidulans A28 and RCho15, A. niger, Geotrichum candidum, Neurospora crassa; settings: summary of Table 1; range stated for DtDRS-1 and DRS together
[6] = system: Micrococcus luteus CGMCC 1.0290; test: Inhibition zone assay; type: cell-based; settings: Gram-positive, N.A. = no inhibition zone at 0.8–1.0 nmol peptides each well
Experimental: as §1

[7] = system: Bacillus megaterium CGMCC 1.0459; test: Inhibition zone assay; type: cell-based; settings: Gram-positive, N.A. = no inhibition zone at 0.8–1.0 nmol peptides each well
Experimental: as §1

[8] = system: Xanthomonas oryzae pv.oryzae; settings: inhibition zone assay; Gram-negative; N.A. = no inhibition zone at 0.8–1.0 nmol peptides each well
[9] = not given; remark: listed apart in the source
[10] = not given; remark: listed apart in the source
[11] = not given; remark: listed apart in the source
[12] = system: Bacillus megaterium and Micrococcus luteus; test: Inhibition zone assay, summary over two Gram-positive bacteria; type: cell-based; settings: summary of Table 1
[13] = system: G. candidum and N. crassa; test: Inhibition zone assay, summary over two fungal species; type: cell-based; settings: summary of Table 1
[14] = peptides at 5× CL, milder than positive control meucin-18

Compound	Effect on membrane integrity (propidium iodide fluorescence) (B. megaterium cells; vancomycin at 10× CL, negative control)	CL (lethal concentration) (Aspergillus niger) [µM]	CL (lethal concentration) [1] [µM]	CL (lethal concentration) [2] [µM]	CL (lethal concentration) [3] [µM]	CL (lethal concentration) [4] [µM]	CL (lethal concentration) (Aspergillus nidulans A28) [µM]	Lethal concentrations (CL), range over sensitive fungi [5] [µM]	CL (lethal concentration) [6] [µM]	CL (lethal concentration) [7] [µM]	β-Sheet content [%]	CL (lethal concentration) [8] [µM]	Effect on membrane integrity (propidium iodide fluorescence) (B. megaterium cells; [14])	α-Helix content [9] [%]	Unordered content [10] [%]	Turns content [11] [%]	CL, range over two Gram-positive bacteria [12] [µM]	CL, range over two fungal species [13] [µM]
CN[C@H](CC(C)C)C(=O)N[C@H]1C(=O)N[C@@H](CC(N)=O)C(=O)N[C@H]2C(=O)N[C@H]3C(=O)N[C@H](C(=O)N[C@H](C(=O)O)c4cc(O)cc(O)c4-c4cc3ccc4O)[C@H](O)c3ccc(c(Cl)c3)Oc3cc2cc(c3O[C@@H]2O[C@H](CO)[C@@H](O)[C@H](O)[C@H]2O[C@H]2C[C@](C)(N)[C@H](O)[C@H](C)O2)Oc2ccc(cc2Cl)[C@H]1O [vancomycin, reference compound]	no fluorescence increase																	
DCLSGRYKGPCAVWDNETCRRVCKEEGRSSGHCSPSLKCWCEGC (disulfide 2-44, 11-33, 19-39, 23-41) [DRS, Drosomycin, reference compound]		1.32	0.30	0.1	1.89	1.73	0.45	0.1 to 2.6										
DCLSGRYKGPCAVWDNETCRRVCKEEGRVSGHCSPSLKCWCEGC (disulfide 2-44, 11-33, 19-39, 23-41) [DtDRS-1]		2.63	0.33	0.3	2.50	2.03	1.25	0.1 to 2.6										
DFKSGKFKGGCMAWSGEKCRRLCKEQGAVSGHCSSNFKCWCEM (disulfide 11-33, 19-39, 23-41 (inferred)) [DtDRS-11]									3.06	4.41	16	8.84	immediate fluorescence increase	21	48	15		
DFLSGKFKGGCMMWSGEKCRRLCKEQGAVSGHCSTNFKCWCEE (disulfide 11-33, 19-39, 23-41 (inferred)) [DtDRS-11d]									1.08	0.98	16		immediate fluorescence increase	18	53	15	0.98 to 1.08	
RDFLSGTFGGPCWAWSGEKCRRLCIEEGHVSGHCSGAMKCWCEG (disulfide 12-34, 20-40, 24-42 (inferred)) [DRS-3-WDB]				3.72	4.89						22			19	41	18		3.72 to 4.89
